System: human renal tumor xenograft RXF 944LX
Assay: In vivo antitumor activity, renal tumor xenograft
Conditions: for DT (tumor doubling time) / T/C (optimal test/control) / GD (growth delay): 15 mg/kg i.p.
Procedure: Animals. Six to eight weeks old outbred nude mice of NMRI genetic background were used for all experiments. The animals were bred and raised in animal facilities in Freiburg, Germany and housed in Macrolon™ cages. The mice were kept under laminar air flow on natural day light cycles. Diet (Altromin, Lage, Germany) and water were provided ad libitum and room temperature (25+/−2° C.) as well as humidity (60+/−10%) were maintained. The experiments were conducted essentially according to the UKCCCR guidelines under a project license approved by the German Federal Government (Regierungspräsidium Freiburg). The gender of the mice was chosen according to the gender of the patients from which the tumors were originally derived.
Tumors and Data Evaluation. For the experiments, three subcutaneously (s.c.) growing renal human tumor xenograft models from the Freiburg tumor panel were selected (RXF 944LX, RXF 393, and RXF 1220). All renal cell carcinomas were hypernephromas. For the experiments, the latter were engrafted from tumors in serial passage growing s.c. in nude mice. Fragments of approximately 25 mg were implanted s.c. in both flanks of the animals. When the tumors were clearly palpable and had reached a volume of 100–200 mm^3, animals (6–12 tumors) were randomly allocated into treatment groups. Tumor growth was followed twice weekly by serial caliper measurement. Tumor volumes were calculated using the formula length×width^2/2, where length (a) is the largest dimension and width (b) the smallest dimension perpendicular to the length (a×b^2/2) (see, e.g., Geran et al., 1972).
Data evaluation was performed using software by plotting relative tumor volume against time. Relative tumor volumes were calculated for each single tumor by dividing the tumor volume on day X by the tumor volume on day 0 at the time of randomization. Tumor doubling time of test and control groups was defined as the period required to double the initial tumor volume (200%). Growth curves were analyzed in terms of maximal tumor inhibition (treated/control, T/C, calculated as median tumor weight of treated animals divided by median tumor weight of control animals times 100), growth delay (the difference in days to double the initial tumor volume of the test minus the control groups). Median relative tumor volumes of each treatment group were compared to those of the control group. Human tumors growing s.c. in nude mice were treated intraperitoneally (i.p.) with doses of 15 and 10 mg/kg drug either on days 1 and 2; on days 1 and 5; on days 1 and 8; or on days 1, 5 and 8.
The drug doses and treatment schedules used, were determined as being tolerated in non-tumor bearing nude mice prior to initiation of tumor experiments.

## O=C1C=CC(O)(c2nc3ccccc3s2)C=C1 [Q05, 4-(Benzothiazol-2-yl)-4-hydroxy-2,5-cyclohexadien-1-one]
Days 1, 2
  DT (tumor doubling time): 4.1
  T/C (optimal test/control): 27
Days 1, 2, difference in days to double initial tumor volume
  GD (growth delay): 2.9
Days 1, 8
  DT (tumor doubling time): 4.2
  T/C (optimal test/control): 43
Days 1, 8, difference in days to double initial tumor volume
  GD (growth delay): 2.3
FIG. 2, six animals per group
  toxic death in treatment group: 1/6
FIG. 2, six animals per group, 11–12 tumors per group
  T/C: 43%
FIG. 3, three animals per group
  T/C: 27%

From US7144893B2, “4-aryl quinols and analogs thereof as therapeutic agents” (Cancer Research Technology Limited, priority 2001, dated 2006)
